Results on 7 compounds are retold here after ChEMBL document CHEMBL3045951, “Toxicities and sublethal effects of seven neonicotinoid insecticides on survival, growth and reproduction of imidacloprid-resistant cotton aphid, Aphis gossypii” (2011).

Each structure is given as a SMILES string. ≈ marks a conversion by molar mass, not a printed value.

Holding throughout (type): functional
In assay [1] the test system is Aphis gossypii. The assay is described as follows: Resistance ratio, LC50 for Aphis gossypii RF45 (cotton aphid) to LC50 for Aphis gossypii SS.
Assay [2] has as its system Aphis gossypii. The assay is described as follows: Insecticidal activity against Aphis gossypii SS (cotton aphid) in cotton leaves assessed as mortality measured after 48 hr by dipping method.
In assay [3] the test system is Aphis gossypii. In words: Insecticidal activity against imidacloprid-resistant Aphis gossypii (cotton aphid) in cotton leaves assessed as longevity at LC20 concentration.
For assay [4], the system named is Aphis gossypii. In words: Insecticidal activity against imidacloprid-resistant Aphis gossypii RF45 (cotton aphid) in cotton leaves assessed as mortality measured after 48 hr by dipping method.
In assay [5] the test system is Aphis gossypii. In words: Insecticidal activity against imidacloprid-resistant Aphis gossypii (cotton aphid) in cotton leaves assessed as mortality measured after 72 hr by dipping method.
In assay [6] the test system is Aphis gossypii.
Description: Insecticidal activity against imidacloprid-resistant Aphis gossypii (cotton aphid) in cotton leaves assessed as inhibition of honeydew excretion at LC20 concentration measured after 72 hr by dipping method
Assay [7] has as its system Aphis gossypii. The assay is described as follows: Insecticidal activity against cotton aphid Aphis gossypii F18 (cotton aphid) in cotton leaves assessed as mortality measured after 48 hr by dipping method.
The subject of assay [8] is Aphis gossypii. The assay is described as follows: Insecticidal activity against cotton aphid Aphis gossypii F27 (cotton aphid) in cotton leaves assessed as mortality measured after 48 hr by dipping method.
For assay [9], the system named is Aphis gossypii. The assay is described as follows: Insecticidal activity against cotton aphid Aphis gossypii F36 (cotton aphid) in cotton leaves assessed as mortality measured after 48 hr by dipping method.
The subject of assay [10] is Aphis gossypii. The assay is described as follows: Resistance ratio, LC50 for Aphis gossypii F12 (cotton aphid) to LC50 for Aphis gossypii F0.
The test system of assay [11] is Aphis gossypii. The assay is described as follows: Resistance ratio, LC50 for Aphis gossypii F3 (cotton aphid) to LC50 for Aphis gossypii F0.
Assay [12] relates to Aphis gossypii. The assay is described as follows: Resistance ratio, LC50 for Aphis gossypii F18 (cotton aphid) to LC50 for Aphis gossypii F0.
The subject of assay [13] is Aphis gossypii. In words: Resistance ratio, LC50 for Aphis gossypii F33 (cotton aphid) to LC50 for Aphis gossypii F0.
For assay [14], the system named is Aphis gossypii. In words: Insecticidal activity against cotton aphid Aphis gossypii F33 (cotton aphid) in cotton leaves assessed as mortality measured after 48 hr by dipping method.
Assay [15] concerns Aphis gossypii. In words: Resistance ratio, LC50 for Aphis gossypii F45 (cotton aphid) to LC50 for Aphis gossypii F0.
The test system of assay [16] is Aphis gossypii. The assay is described as follows: Insecticidal activity against cotton aphid Aphis gossypii F6 (cotton aphid) in cotton leaves assessed as mortality measured after 48 hr by dipping method.
For assay [17], the system named is Aphis gossypii. In words: Insecticidal activity against cotton aphid Aphis gossypii F45 (cotton aphid) in cotton leaves assessed as mortality measured after 48 hr by dipping method.
Assay [18] concerns Aphis gossypii. In words: Resistance ratio, LC50 for Aphis gossypii F36 (cotton aphid) to LC50 for Aphis gossypii F0.
Assay [19] concerns Aphis gossypii. In words: Insecticidal activity against cotton aphid Aphis gossypii F30 (cotton aphid) in cotton leaves assessed as mortality measured after 48 hr by dipping method.
The subject of assay [20] is Aphis gossypii. The assay is described as follows: Insecticidal activity against cotton aphid Aphis gossypii F24 (cotton aphid) in cotton leaves assessed as mortality measured after 48 hr by dipping method.
Assay [21] relates to Aphis gossypii. In words: Resistance ratio, LC50 for Aphis gossypii F24 (cotton aphid) to LC50 for Aphis gossypii F0.
The test system of assay [22] is Aphis gossypii. In words: Insecticidal activity against cotton aphid Aphis gossypii F21 (cotton aphid) in cotton leaves assessed as mortality measured after 48 hr by dipping method.
The subject of assay [23] is Aphis gossypii. The assay is described as follows: Insecticidal activity against cotton aphid Aphis gossypii F0 (cotton aphid) in cotton leaves assessed as mortality measured after 48 hr by dipping method.
The subject of assay [24] is Aphis gossypii. The assay is described as follows: Insecticidal activity against cotton aphid Aphis gossypii F3 (cotton aphid) in cotton leaves assessed as mortality measured after 48 hr by dipping method.
Assay [25] concerns Aphis gossypii. In words: Resistance ratio, LC50 for Aphis gossypii F27 (cotton aphid) to LC50 for Aphis gossypii F0.
In assay [26] the test system is Aphis gossypii. The assay is described as follows: Resistance ratio, LC50 for Aphis gossypii F21 (cotton aphid) to LC50 for Aphis gossypii F0.
The test system of assay [27] is Aphis gossypii. In words: Resistance ratio, LC50 for Aphis gossypii F30 (cotton aphid) to LC50 for Aphis gossypii F0.
Assay [28] deals with Aphis gossypii. In words: Insecticidal activity against cotton aphid Aphis gossypii F9 (cotton aphid) in cotton leaves assessed as mortality measured after 48 hr by dipping method.
Assay [29] has as its system Aphis gossypii. The assay is described as follows: Resistance ratio, LC50 for Aphis gossypii F39 (cotton aphid) to LC50 for Aphis gossypii F0.
Assay [30] concerns Aphis gossypii. In words: Insecticidal activity against cotton aphid Aphis gossypii F15 (cotton aphid) in cotton leaves assessed as mortality measured after 48 hr by dipping method.
For assay [31], the system named is Aphis gossypii. The assay is described as follows: Resistance ratio, LC50 for Aphis gossypii F9 (cotton aphid) to LC50 for Aphis gossypii F0.
In assay [32] the test system is Aphis gossypii. In words: Resistance ratio, LC50 for Aphis gossypii F6 (cotton aphid) to LC50 for Aphis gossypii F0.
In assay [33] the test system is Aphis gossypii. In words: Resistance ratio, LC50 for Aphis gossypii F15 (cotton aphid) to LC50 for Aphis gossypii F0.
For assay [34], the system named is Aphis gossypii. The assay is described as follows: Insecticidal activity against cotton aphid Aphis gossypii F42 (cotton aphid) in cotton leaves assessed as mortality measured after 48 hr by dipping method.
In assay [35] the test system is Aphis gossypii. The assay is described as follows: Insecticidal activity against cotton aphid Aphis gossypii F12 (cotton aphid) in cotton leaves assessed as mortality measured after 48 hr by dipping method.
The test system of assay [36] is Aphis gossypii. The assay is described as follows: Insecticidal activity against cotton aphid Aphis gossypii F39 (cotton aphid) in cotton leaves assessed as mortality measured after 48 hr by dipping method.
Assay [37] concerns Aphis gossypii. The assay is described as follows: Resistance ratio, LC50 for Aphis gossypii F42 (cotton aphid) to LC50 for Aphis gossypii F0.

Turning to `C/C(=N\C#N)N(C)Cc1ccc(Cl)nc1` [ACETAMIPRID], the RatioLC50 in assay [1] worked out at 4.52. Also, the figures for the LC50 in assay [2] and in assay [4] were 2.73 microg/mL2 and 12.4 microg/mL2, respectively. Also, in assay [3], the Survival came to 11.4 days. The LC20 in [5] was determined as 8.36 µg/mL (≈ 37.5 µM). Also, the “inhibition (INH)” value in [6] came out at 40.2%.
Consider `CN/C(=N\[N+](=O)[O-])NCc1cnc(Cl)s1` [CLOTHIANIDINE], for which the RatioLC50 in assay [1] was 1.2. In addition, the LC50 in assay [2] was 1.82 microg/mL2; in [4], 2.18 microg/mL2. Also, the Survival in assay [3] turned out to be 6.61 days. Besides, the LC20 in assay [5] is 1.23 µg/mL (≈ 4.93 µM). The “inhibition (INH)” value in [6] was determined as 72.7%.
Regarding `CN/C(=N/CC1CCOC1)N[N+](=O)[O-]` (stereo not drawn) [DINOTEFURAN], the RatioLC50 in [1] was determined as 1.07. Further, the LC50 in assay [2] is reported as 1.2 microg/mL2; in [4], 1.29 microg/mL2. In addition, the Survival in assay [3] turned out to be 2.95 days. For the same compound, in assay [5], the LC20 came out at 0.88 µg/mL (≈ 4.35 µM). Moreover, in assay [6], the “inhibition (INH)” value stood at 82.2%.
In the case of `O=[N+]([O-])/N=C1\NCCN1Cc1ccc(Cl)nc1` [IMIDACLOPRID], the RatioLC50 is 41.7 in assay [1]; 7.53 in assay [10]; 1.72 in assay [11]; 13.1 in assay [12]; 33.4 in assay [13]; 41.7 in [15]. Moreover, the RatioLC50 turned out to be 38.2 in [18]; 19.8 in assay [21]; 22.2 in assay [25]; 16.2 in assay [26]; 28.5 in assay [27]; 39.3 in assay [29]. The RatioLC50 in assay [31] turned out to be 4.81; in assay [32], 3.84; in assay [33], 10.4; in [37], 41.1. In addition, the LC50 in assay [7] came out at 4.2 microg/mL2; in [8], 7.1 microg/mL2; in assay [9] it was 12.2 microg/mL2; in [14], 10.7 microg/mL2; in assay [16], 1.23 microg/mL2; in assay [17] it was 13.5 microg/mL2. Also, the LC50 in [2] is 0.32 microg/mL2; in assay [19], 9.12 microg/mL2; in assay [20], 6.35 microg/mL2; in assay [22], 5.17 microg/mL2; in [23], 0.32 microg/mL2; in assay [24], 0.55 microg/mL2. For the same compound, the LC50 in assay [28] worked out at 1.54 microg/mL2; in assay [30], 3.34 microg/mL2; in assay [4] it was 13.5 microg/mL2; in [34], 13.2 microg/mL2; in [35] it was 2.41 microg/mL2; in assay [36], 12.6 microg/mL2. In addition, the Survival in assay [3] came out at 13.6 days. In addition, the LC20 in assay [5] is 10.6 µg/mL (≈ 41.5 µM). For the same compound, the “inhibition (INH)” value in [6] is given as 23.4%.
As to `CCN(Cc1ccc(Cl)nc1)/C(=C/[N+](=O)[O-])NC` [NITENPYRAM], in assay [1], the RatioLC50 was determined as 5.78. The values for the LC50 in assay [2] and in assay [4] were 2.47 microg/mL2 and 14.3 microg/mL2, respectively. Besides, the Survival in [3] came out at 8.42 days. Also, the LC20 in [5] is 10.5 µg/mL (≈ 38.8 µM). The “inhibition (INH)” value in assay [6] is recorded as 28.3%.
In the case of `N#C/N=C1\SCCN1Cc1ccc(Cl)nc1` [THIACLOPRID], in assay [1], the RatioLC50 was determined as 3.68. For the same compound, the LC50 in assay [2] is 2.36 microg/mL2; in assay [4] it was 8.69 microg/mL2. The Survival in assay [3] came to 10.6 days. Moreover, in assay [5], the LC20 is 5.45 µg/mL (≈ 21.6 µM). Also, in assay [6], the “inhibition (INH)” value came out at 36.9%.
On to `CN1COCN(Cc2cnc(Cl)s2)/C1=N\[N+](=O)[O-]` [THIAMETHOXAM], for which the RatioLC50 in [1] worked out at 1.06. Further, the LC50 in assay [2] was 1.6 microg/mL2; in assay [4] it was 1.69 microg/mL2. The Survival in [3] worked out at 6.78 days. Further, the LC20 in assay [5] is 0.96 µg/mL (≈ 3.29 µM). Also, the “inhibition (INH)” value in assay [6] was determined as 73.7%.
